According to patent US20030229066A1, “Novel heterocyclic urea derivatives and their use as dopamine D3 receptor ligands” (priority 2001, published 2003):
Where two headings read alike, the source gives them in different places.

Molecular target: T1, cloned human dopamine D3 receptors (Homo sapiens, UniProt P35462)
T1 construct: expressed in transfected cells
Assay: [N-Methyl-3H]Spiroperidol binding to cloned human dopamine D3 receptors
Text: [N-Methyl-^3H]Spiroperidol Binding to Cloned Human Dopamine D3 Receptors
This assay measures the in vitro activity of compounds on cloned human dopamine (D3) receptors and predicts the direct dopamine-blocking properties of putative neuropsychiatric agents at human dopamine D3 receptors.
The D3 gene was isolated from a human striatal cDNA library (Stratagene). The gene was sequenced and sub-cloned into the expression vector RC/RSV (Invitrogen). CHO (Chinese Hamster Ovary) cells were stably transfected with 10 μg of the D3/RSV plasmid using the DOTAP method from Boehringer Mannheim and 72 clones that were G418 resistant were isolated. Using mRNA and binding displacement data a single high expressing clone was identified. This clone was then grown in large batches for the purpose of developing a 96 well format assay.
The cells are harvested into 250 ml centrifuge tubes with 100 volumes of cold phosphate buffered saline (PBS) and spun down (1200×G for 10 min at 4° C.). The medium is removed and 100 ml PBS are added to each centrifuge tube, cells are resuspened and spun down again. The PBS is removed and the final pellet is homogenized in an appropriate volume of 10% DMSO with a polytron on ice at a medium setting.
For Kj determinations: [^3H]NMSP is made up to a concentration of 2.7 nM in buffer 2b, such that when 150 μl is added to each tube a final concentration of 0.4 nM is attained in the 1 ml assay. Samples of total CPM added are taken for each experiment to calculate the total ligand concentration.
5. S(-)-Eticlopride is obtained from Research Biochemicals International (RBI catalog number E-101). A refrigerated stock (good for up to a month) solution of S(-)-eticlopride is made at a concentration of 30 μM in buffer 2b. One hundred microliters are added to 3 wells for the determination of nonspecific binding (this yields a final concentration of 3 μM in the 1 ml assay).
For most assays, a 100 μM stock solution of the test compound is made up in a suitable solvent (usually <0.1% acetic acid) and serially diluted with buffer 2b, such that when 100 μl of drug is combined with the total 1 ml assay, final concentrations ranging from 10^−5-10^−8 M are attained. Characteristically eight concentrations are studied for each assay; however, higher or lower concentrations may be used, depending on the potency of the drug.
The 96-Well Packard Unifilters GF/B are incubated for >1 h at 25° C. in 0.1% polyethylamine (from 3,b). The cold tissue is added last and mixed on a orbital shaker for a few seconds and is then incubated at 37° C. for 30 min in a shaking water bath. The assay is stopped by rapid filtration through Packard Unifilter plates. The filter membranes are then washed with 15 ml of ice-cold 0.05 M Tris buffer. The filters are then dried (˜15 min under a heat lamp or incubated for 15 min in a 60° C. oven) and a bottom seal is applied. Then 40 μl of Packard Microscint 20 scintillation cocktail is added and a permanent topseal (Type P) is applied and heat sealed. The plates are then shaken on an orbital shaker for 1 h and placed in the Packard Topcount and counted for at least 5 minutes for each point.
Specific binding is defined as the difference between total binding and the binding in the presence of 3 μM S-(-)-eticlopride. Total binding is approximately 10% of the total added ligand. Cheng-Prusoff determination (Kj's) are performed using Prism software using a one-site competition curve analysis where the top and the bottom of the non-linear regression are held constant at 0% and 100% percent inhibition. The percent inhibition at each drug concentration is the mean of duplicate determinations.

T1 sequence (P35462 whole entry): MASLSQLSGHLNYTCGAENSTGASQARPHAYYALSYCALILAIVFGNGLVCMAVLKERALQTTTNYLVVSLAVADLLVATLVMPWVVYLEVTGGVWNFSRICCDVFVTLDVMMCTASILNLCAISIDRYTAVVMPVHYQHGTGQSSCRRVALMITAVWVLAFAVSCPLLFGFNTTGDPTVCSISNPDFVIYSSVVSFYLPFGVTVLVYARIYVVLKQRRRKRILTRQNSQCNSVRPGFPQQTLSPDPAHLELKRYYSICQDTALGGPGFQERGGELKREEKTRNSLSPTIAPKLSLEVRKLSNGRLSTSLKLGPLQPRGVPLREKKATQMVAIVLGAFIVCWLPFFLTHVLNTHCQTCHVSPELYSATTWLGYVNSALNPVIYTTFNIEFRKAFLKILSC

Row | Ki | Ki (Table III, read-out: d3Ki) | Compound
1 | 2.97 nM |  | C=CCN(CC1CC1CN1CCCN(c2csc3cc(F)ccc23)CC1)C(=O)Nc1ccc(OC)cc1 (racemic) [compound 830389]
2 | 41.3 nM |  | O=C(Nc1ccc(OC(F)(F)F)cc1)N(Cc1ccccc1)CC1CC1CN1CCCN(c2csc3cc(F)ccc23)CC1 (racemic) [compound 830400]
3 | 29.7 nM |  | O=C(Nc1ccc(Cl)c(Cl)c1)N(Cc1ccccc1)CC1CC1CN1CCCN(c2csc3cc(F)ccc23)CC1 (racemic) [compound 830401]
4 | 3.43 nM |  | COc1ccc(NC(=O)NCC2CC2CN2CCCN(c3csc4cc(F)ccc34)CC2)cc1 (racemic) [compound 830408]
5 | 47.4 nM |  | O=C(NCC1CC1CN1CCCN(c2csc3cc(F)ccc23)CC1)Nc1ccc(Cl)c(Cl)c1 (racemic) [compound 830409]
6 | 43.6 nM |  | CC(C)(C)NC(=O)NCC1CC1CN1CCC(c2noc3ccsc23)CC1 (racemic) [compound 831498]
7 | 159 nM |  | O=C(NCCc1ccccc1)NCC1CC1CN1CCC(c2noc3ccsc23)CC1 (racemic) [compound 831670]
8 |  | 5.94 nM | COc1ccc(NC(=O)NCCCCN2CCN(c3csc4cc(C(F)(F)F)ccc34)CC2)cc1 [815994A]
9 |  | 4.08 nM | Cc1ccc(NC(=O)NCCCCN2CCN(c3csc4cc(C(F)(F)F)ccc34)CC2)cc1 [815997A]
10 |  | 7.4 nM | CC(=O)c1ccc(NC(=O)NCCCCN2CCN(c3c(Cl)sc4cc(F)ccc34)CC2)cc1 [compound 815158]
11 |  | 85.4 nM | O=C(NCCCCN1CCN(c2c(Cl)sc3cc(F)ccc23)CC1)Nc1ccc(Oc2ccccc2)cc1 [compound 815159]
12 |  | 192 nM | O=C(NCCCCN1CCN(c2c(Cl)sc3cc(F)ccc23)CC1)Nc1ccc(-c2ccccc2)cc1 [compound 815160]
13 |  | 75.9 nM | O=C(NCCCCN1CCN(c2c(Cl)sc3cc(F)ccc23)CC1)Nc1ccc(OCc2ccccc2)cc1 [compound 815161]
14 |  | 38 nM | O=C(NCCCCN1CCN(c2c(Cl)sc3cc(F)ccc23)CC1)Nc1ccc(C(F)(F)F)cc1 [compound 815162]
15 |  | 25.2 nM | O=C(NCCCCN1CCN(c2c(Cl)sc3cc(F)ccc23)CC1)Nc1cccc(F)c1 [compound 815163]
16 |  | 31.9 nM | O=C(NCCCCN1CCN(c2c(Cl)sc3cc(F)ccc23)CC1)Nc1ccc(F)cc1 [compound 815164]
17 |  | 21.4 nM | COc1ccc(NC(=O)NCCCCN2CCN(c3c(Cl)sc4cc(F)ccc34)CC2)cc1 [compound 815165]
18 |  | 37 nM | CCCCOc1ccc(NC(=O)NCCCCN2CCN(c3c(Cl)sc4cc(F)ccc34)CC2)cc1 [compound 815166]
19 |  | 48 nM | CC(C)c1ccc(NC(=O)NCCCCN2CCN(c3c(Cl)sc4cc(F)ccc34)CC2)cc1 [compound 815167]
20 |  | 33.4 nM | O=C(NCCCCN1CCN(c2c(Cl)sc3cc(F)ccc23)CC1)Nc1ccc(I)cc1 [compound 815168]

Row | Ki | Ki (Table III, read-out: d3Ki) | Compound
21 |  | 11.2 nM | O=C(NCCCCN1CCN(c2c(Cl)sc3cc(F)ccc23)CC1)Nc1ccccc1Cl [compound 815169]
22 |  | 17.7 nM | CCCCc1ccc(NC(=O)NCCCCN2CCN(c3c(Cl)sc4cc(F)ccc34)CC2)cc1 [compound 815170]
23 |  | 3.8 nM | Cc1ccc(NC(=O)NCCCCN2CCN(c3c(Cl)sc4cc(F)ccc34)CC2)cc1 [compound 815171]
24 |  | 5.6 nM | O=C(NCCCCN1CCN(c2c(Cl)sc3cc(F)ccc23)CC1)Nc1ccc(Cl)cc1 [compound 815172]
25 |  | 46.5 nM | O=C(NCCCCN1CCN(c2c(Cl)sc3cc(F)ccc23)CC1)Nc1ccccc1C(F)(F)F [compound 815173]
26 |  | 6 nM | O=C(NCCCCN1CCN(c2c(Cl)sc3cc(F)ccc23)CC1)Nc1ccc(Br)cc1 [compound 815174]
27 |  | 11.8 nM | O=C(NCCCCN1CCN(c2c(Cl)sc3cc(F)ccc23)CC1)Nc1cccc2ccccc12 [compound 815175]
28 |  | 18 nM | O=C(NCCCCN1CCN(c2c(Cl)sc3cc(F)ccc23)CC1)NCc1ccccc1 [compound 815177]
29 |  | 190 nM | S=C(NCCCCN1CCC(c2noc3ccsc23)CC1)Nc1ccccc1 [compound 815383]
30 |  | 18 nM | O=C(NCCCCN1CCC(c2noc3ccsc23)CC1)Nc1ccc(Br)cc1 [compound 815386]
31 |  | 28 nM | O=C(NCCCCN1CCC(c2noc3ccsc23)CC1)Nc1ccc(-c2ccccc2)cc1 [compound 815387]
32 |  | 30 nM | O=C(NCCCCN1CCC(c2noc3ccsc23)CC1)NC1CCCCC1 [compound 815389]
33 |  | 52 nM | O=C(NCCCCN1CCC(c2noc3ccsc23)CC1)Nc1cccc2ccccc12 [compound 815390]
34 |  | 16 nM | O=C(NCCCCN1CCC(c2noc3ccsc23)CC1)Nc1ccc(Oc2ccccc2)cc1 [compound 815391]
35 |  | 24 nM | O=C(NCCCCN1CCC(c2noc3ccsc23)CC1)NC12CC3CC(CC(C3)C1)C2 [compound 815392]
36 |  | 4.19 nM | CCc1cccc(NC(=O)NCCCCN2CCC(c3noc4ccsc34)CC2)c1 [compound 815934]
37 |  | 53.8 nM | O=C(NCCCCN1CCC(c2noc3ccsc23)CC1)Nc1ccc(OC(F)(F)F)cc1 [compound 815935]
38 |  | 3.91 nM | O=C(NCCCCN1CCC(c2noc3ccsc23)CC1)Nc1cc(C(F)(F)F)ccc1Cl [compound 815936]
39 |  | 66.3 nM | CC(NC(=O)NCCCCN1CCC(c2noc3ccsc23)CC1)c1ccc(Br)cc1 (stereo not shown) [compound 815937]
40 |  | 19.1 nM | O=C(NCCCCN1CCC(c2noc3ccsc23)CC1)Nc1ccccc1Br [compound 815939]

Row | Ki | Ki (Table III, read-out: d3Ki) | Compound
41 |  | 140 nM | CCNC(=O)NCCCCN1CCC(c2noc3ccsc23)CC1 [compound 815940]
42 |  | 128 nM | CCOC(=O)c1ccccc1NC(=O)NCCCCN1CCC(c2noc3ccsc23)CC1 [compound 815941]
43 |  | 41.7 nM | CCOC(=O)C(CC(C)C)NC(=O)NCCCCN1CCC(c2noc3ccsc23)CC1 (stereo not shown) [compound 815942]
44 |  | 198 nM | CCOC(=O)CCNC(=O)NCCCCN1CCC(c2noc3ccsc23)CC1 [compound 815943]
45 |  | 297 nM | COC(=O)C(Cc1ccccc1)NC(=O)NCCCCN1CCC(c2noc3ccsc23)CC1 (stereo not shown) [compound 815944]
46 |  | 116 nM | O=C(NCCCCN1CCC(c2noc3ccsc23)CC1)NCc1cc(=O)oc2cc3c(cc12)OCO3 [compound 815945]
47 |  | 28.3 nM | CCCCCCCCNC(=O)NCCCCN1CCC(c2noc3ccsc23)CC1 [compound 815946]
48 |  | 26 nM | COc1c(Cl)cccc1NC(=O)NCCCCN1CCC(c2noc3ccsc23)CC1 [compound 815947]
49 |  | 6.04 nM | O=C(NCCCCN1CCC(c2noc3ccsc23)CC1)Nc1ccccc1F [compound 815948]
50 |  | 13.6 nM | O=C(NCCCCN1CCC(c2noc3ccsc23)CC1)Nc1ccccc1Cl [compound 815949]
51 |  | 27 nM | CC(C)c1ccccc1NC(=O)NCCCCN1CCC(c2noc3ccsc23)CC1 [compound 815952]
52 |  | 67.9 nM | C=C(C)c1cccc(C(C)(C)NC(=O)NCCCCN2CCC(c3noc4ccsc34)CC2)c1 [compound 815953]
53 |  | 14.9 nM | CCOC(=O)c1ccc(NC(=O)NCCCCN2CCC(c3noc4ccsc34)CC2)cc1 [compound 815954]
54 |  | 5.85 nM | O=C(NCCCCN1CCN(c2csc3cc(C(F)(F)F)ccc23)CC1)Nc1cccc2ccccc12 [compound 815996]
55 |  | 22.5 nM | O=C(NCCCCN1CCN(c2csc3cc(C(F)(F)F)ccc23)CC1)NCc1ccccc1 [compound 815998]
56 |  | 19 nM | COc1ccccc1NC(=O)NCCCCN1CCN(c2csc3cc(C(F)(F)F)ccc23)CC1 [compound 815999]
57 |  | 6.11 nM | O=C(NCCCCN1CCN(c2csc3cc(C(F)(F)F)ccc23)CC1)Nc1ccc(F)cc1 [compound 816004]
58 |  | 7.42 nM | O=C(NCCCCN1CCN(c2csc3cc(C(F)(F)F)ccc23)CC1)Nc1ccc(F)cc1F [compound 816006]
59 |  | 17.5 nM | Cc1ccccc1NC(=O)NCCCCN1CCN(c2csc3cc(C(F)(F)F)ccc23)CC1 [compound 816007]
60 |  | 17 nM | COc1ccc(NC(=O)NCCCCN2CCN(c3csc4cc(C(F)(F)F)ccc34)CC2)c(OC)c1 [compound 816008]

Row | Compound | Ki | Ki (Table III, read-out: d3Ki)
61 | CCO[Si](CCCNC(=O)NCCCCN1CCC(c2noc3ccsc23)CC1)(OCC)OCC [compound 815938] |  | 153 nM
